Laboratory results taken from patent US7696246B2 (Ligand Pharmaceuticals Incorporated, priority 1999, dated 2010).
Like-named read-outs stand apart in the source and are kept apart here.

How the values were obtained:
PR [1] = target: T1, PR (Homo sapiens, UniProt P06401); test: Co-transfection assay, PR agonist activity (CV-1 cells); assay type: cell-based; design: expressed in transfected cells; host or cells: CV-1 cells; conditions: for EC50: agonist potency EC50; for PR Agonist CV-1 Cells Efficacy (%): percent maximal response relative to reference agonist progesterone
T1 sequence (P06401 1-933): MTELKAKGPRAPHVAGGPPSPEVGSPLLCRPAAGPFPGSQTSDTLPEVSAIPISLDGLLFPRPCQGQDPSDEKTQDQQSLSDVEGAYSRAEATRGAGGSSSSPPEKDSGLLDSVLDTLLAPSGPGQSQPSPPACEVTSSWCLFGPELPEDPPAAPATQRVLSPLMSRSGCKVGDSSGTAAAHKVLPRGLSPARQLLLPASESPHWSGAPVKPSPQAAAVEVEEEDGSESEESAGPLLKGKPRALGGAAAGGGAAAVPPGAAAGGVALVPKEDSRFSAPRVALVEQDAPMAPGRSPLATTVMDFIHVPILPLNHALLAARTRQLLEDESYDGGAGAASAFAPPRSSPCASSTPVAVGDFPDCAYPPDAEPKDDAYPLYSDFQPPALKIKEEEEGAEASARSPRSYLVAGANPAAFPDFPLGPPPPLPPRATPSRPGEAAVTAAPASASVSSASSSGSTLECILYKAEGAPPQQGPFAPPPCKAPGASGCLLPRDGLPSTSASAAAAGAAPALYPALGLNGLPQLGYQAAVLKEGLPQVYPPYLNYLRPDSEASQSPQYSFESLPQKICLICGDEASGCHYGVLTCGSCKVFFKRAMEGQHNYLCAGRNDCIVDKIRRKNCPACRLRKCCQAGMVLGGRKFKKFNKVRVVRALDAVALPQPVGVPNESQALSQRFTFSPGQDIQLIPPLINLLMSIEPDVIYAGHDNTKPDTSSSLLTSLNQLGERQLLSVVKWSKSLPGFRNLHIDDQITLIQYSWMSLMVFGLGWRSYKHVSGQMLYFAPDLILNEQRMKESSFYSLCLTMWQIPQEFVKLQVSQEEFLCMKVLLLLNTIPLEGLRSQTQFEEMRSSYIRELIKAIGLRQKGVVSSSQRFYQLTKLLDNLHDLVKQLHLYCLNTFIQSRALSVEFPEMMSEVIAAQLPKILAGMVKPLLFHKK

PR [2] = target: T1, PR; test: PR competitive binding assay; conditions: Cheng-Prusoff
Method: (§1) After correcting for non-specific binding, IC50 values were determined. […] The IC50 value was determined graphically from a log-logit plot of the data. The Ki values were determined by application of the Cheng-Prusoff equivuation to the IC50 values, the labeled ligand concentration and the Kd of the labeled ligand.

human AR [3] = target: T2, human AR (Homo sapiens, UniProt P10275); test: AR whole cell competitive binding assay (COS-1 cells, 3H-DHT); conditions: 1 nM 3H-DHT, Cheng-Prusoff
T2 sequence (P10275 1-920): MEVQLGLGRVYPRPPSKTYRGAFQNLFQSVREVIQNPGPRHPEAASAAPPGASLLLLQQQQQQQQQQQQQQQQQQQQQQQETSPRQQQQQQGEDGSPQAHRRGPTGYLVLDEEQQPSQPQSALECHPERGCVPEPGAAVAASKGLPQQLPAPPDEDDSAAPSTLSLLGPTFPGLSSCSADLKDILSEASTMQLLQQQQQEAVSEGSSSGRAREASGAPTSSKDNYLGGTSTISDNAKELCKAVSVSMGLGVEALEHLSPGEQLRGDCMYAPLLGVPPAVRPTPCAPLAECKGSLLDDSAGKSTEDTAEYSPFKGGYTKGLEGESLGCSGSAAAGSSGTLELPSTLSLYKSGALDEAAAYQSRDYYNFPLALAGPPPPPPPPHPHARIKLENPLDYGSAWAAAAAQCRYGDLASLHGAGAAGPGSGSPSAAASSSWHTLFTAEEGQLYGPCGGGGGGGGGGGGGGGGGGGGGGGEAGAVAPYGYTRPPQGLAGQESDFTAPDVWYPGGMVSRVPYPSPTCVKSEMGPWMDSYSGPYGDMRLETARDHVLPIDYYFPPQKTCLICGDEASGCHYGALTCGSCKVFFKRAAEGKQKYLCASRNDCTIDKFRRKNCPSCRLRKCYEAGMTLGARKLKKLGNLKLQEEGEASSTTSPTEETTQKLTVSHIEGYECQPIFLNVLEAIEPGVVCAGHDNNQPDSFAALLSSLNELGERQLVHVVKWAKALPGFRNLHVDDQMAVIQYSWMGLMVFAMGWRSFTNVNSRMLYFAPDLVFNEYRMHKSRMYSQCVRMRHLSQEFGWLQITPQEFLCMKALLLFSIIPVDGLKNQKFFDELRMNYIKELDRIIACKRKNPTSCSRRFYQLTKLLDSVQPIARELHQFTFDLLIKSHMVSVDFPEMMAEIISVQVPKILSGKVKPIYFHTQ
Method: AR Binding: For the whole cell binding assay, COS-1 cells in 96-well microtiter plates containing DMEM-10% FBS were transfected as described above with the following plasmid DNA: pRShAR (2 ng/well), pRS-β-Gal (50 ng/well) and pGEM (48 ngcwell). Six hours after transfection, media was removed, the cells were washed with PBS and fresh media was added. The next day, the media was changed to DMEM-serum free to remove any endogenous ligand that might be complexed with the receptor in the cells.
Three replicates were used for each sample. […] The remaining media was removed, the cells were washed three times with PBS to remove unbound ligand, and cells were lysed with a Triton X-100-based buffer.
For the saturation analyses, the difference between the total binding and the nonspecific binding, normalized by the β-Gal rate, was defined as specific binding. […] The Ki values were determined by application of the Cheng-Prusoff equation to the IC50 values, where:
as §1

PR [4] = target: T1, PR; test: Co-transfection assay, PR antagonist activity (CV-1 cells, in presence of progesterone); assay type: cell-based; design: expressed in transfected cells; host or cells: CV-1 cells; conditions: for PR Antagonist CV-1 Cells Efficacy (%): percent maximal inhibition, progesterone at its EC50
human AR [5] = target: T2, human AR; test: Co-transfection assay, AR agonist activity (CV-1 cells, MTV-LUC reporter); assay type: cell-based; conditions: CV-1 cells; for EC50: agonist potency EC50
human AR [6] = target: T2, human AR; test: Co-transfection assay, AR antagonist activity (CV-1 cells, in presence of DHT); assay type: cell-based; conditions: for AR Antagonist CV-1 Cells Efficacy (%): percent maximal inhibition, DHT at its EC50; for IC50: read-out: AR Antagonist CV-1 Cells Potency
[7] = read-out: PR Antagonist CV-1 Cells Potency

SMILES	EC50 (PR [1]) [µM]	PR Agonist CV-1 Cells Efficacy (%) (PR [1])	Ki (PR [2]) [nM]	Ki (human AR [3]) [nM]	PR Antagonist CV-1 Cells Efficacy (%) (PR [4])	IC50 (PR [4]; [7]) [nM]	EC50 (human AR [5]) [µM]	AR Antagonist CV-1 Cells Efficacy (%) (human AR [6])	IC50 (human AR [6]) [nM]	IC50 (PR [4]) [nM]	AR Agonist CV-1 Cells Efficacy (%) (human AR [5]; percent maximal response relative to reference agonist DHT)	melting point [°C]
CC1(C)OC(=S)Nc2ccc(C3=CCCCC3)cc21 [Compound 689, 6-(1-Cyclohexenyl)-1,4-dihydro-4,4-dimethyl-1,3-benzo[d]oxazin-2-thione]	2.7	105%	23	132	47	35	> 10	89%	40			
CCN(CC(C)(C)C)c1ccc2[nH]c(=O)cc(C(F)(F)F)c2c1 [Compound 242, 6-(N-Ethyl-N-2,2-dimethylpropyl)amino-4-trifluoromethyl-2(1H)-quinolinone]	> 10	na (na = not active (i.e. efficacy of <20 and potency of >10,000))	70	32	95		0.0028	na (na = not active (i.e. efficacy of <20 and potency of >10,000))	> 10000	200	66	
O=c1cc(C(F)(F)F)c2cc(-c3cccc(F)c3F)ccc2[nH]1 [Compound 725, 6-(2,3-Difluoro)phenyl-4-trifluoromethyl-2(1H)-quinolinone]	> 10	na (na = not active (i.e. efficacy of <20 and potency of >10,000))	400	> 1000	92		> 10	87%	79	149		
CC(C)(O)C(=O)Nc1ccc2c(C(F)(F)F)cc(=O)[nH]c2c1												289 to 291
CC1(C)OC(=O)Nc2ccc(C3=CCCCC3)cc21 [Compound 667, 6-(1-Cyclohexenyl)-1,4-dihydro-4,4-dimethyl-1,3-benzo[d]oxazin-2-one]	> 10	na (na = not active (i.e. efficacy of <20 and potency of >10,000))	144	7.4	89	70	> 10	89%	27			
CC(C)CN(CC(F)(F)F)c1cc2c(C(F)(F)F)cc(=O)[nH]c2cc1O [Compound 473, 6-(N-Isobutyl-N-2,2,2-trifluoroethyl)amino-7-hydroxy-4-trifluoromethyl-2(1H)-quinolinone]	> 10	na (na = not active (i.e. efficacy of <20 and potency of >10,000))	508		55					880		
